Source: ChEMBL document CHEMBL2321855, “Synthesis, molecular modeling and evaluation of novel N'-2-(4-benzylpiperidin-/piperazin-1-yl)acylhydrazone derivatives as dual inhibitors for cholinesterases and Aβ aggregation” (Bioorg Med Chem Lett, 2013)
pIC50, pKi: −log10 of the molar value.

Tests used:
[1] = biological target: Amyloid-beta precursor protein (Homo sapiens) (UniProt P05067); test: Inhibition of amyloid beta (1 to 42) (unknown origin) aggregation at 100 uM by thioflavin-T fluorescence method relative to rifampicin
Chain of Amyloid-beta precursor protein (Homo sapiens) (P05067 whole entry): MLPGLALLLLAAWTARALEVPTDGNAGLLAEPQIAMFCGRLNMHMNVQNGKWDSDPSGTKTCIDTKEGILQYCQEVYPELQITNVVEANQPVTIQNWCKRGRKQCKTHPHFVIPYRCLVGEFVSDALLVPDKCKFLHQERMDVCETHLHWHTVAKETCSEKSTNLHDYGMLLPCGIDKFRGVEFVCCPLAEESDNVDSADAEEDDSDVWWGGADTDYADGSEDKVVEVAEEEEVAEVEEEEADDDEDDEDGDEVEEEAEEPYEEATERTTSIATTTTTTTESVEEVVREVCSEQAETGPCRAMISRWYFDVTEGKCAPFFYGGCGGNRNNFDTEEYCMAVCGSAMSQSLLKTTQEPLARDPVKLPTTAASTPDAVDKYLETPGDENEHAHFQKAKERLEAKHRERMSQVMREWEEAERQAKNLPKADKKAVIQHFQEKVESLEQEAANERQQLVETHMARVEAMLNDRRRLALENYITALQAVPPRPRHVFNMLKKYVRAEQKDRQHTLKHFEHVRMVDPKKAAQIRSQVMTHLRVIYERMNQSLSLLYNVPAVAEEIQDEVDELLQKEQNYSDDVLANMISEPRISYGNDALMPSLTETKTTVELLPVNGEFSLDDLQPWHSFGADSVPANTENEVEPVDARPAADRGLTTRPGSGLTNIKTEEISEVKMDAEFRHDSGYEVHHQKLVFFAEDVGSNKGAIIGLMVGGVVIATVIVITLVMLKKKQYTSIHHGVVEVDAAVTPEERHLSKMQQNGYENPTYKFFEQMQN

Cholinesterase [2] = biological target: T1, Cholinesterase (Equus caballus, UniProt P81908); test: Competitive inhibition of equine BuChE by Lineweaver-Burk plot analysis
T1 sequence (P81908 whole entry): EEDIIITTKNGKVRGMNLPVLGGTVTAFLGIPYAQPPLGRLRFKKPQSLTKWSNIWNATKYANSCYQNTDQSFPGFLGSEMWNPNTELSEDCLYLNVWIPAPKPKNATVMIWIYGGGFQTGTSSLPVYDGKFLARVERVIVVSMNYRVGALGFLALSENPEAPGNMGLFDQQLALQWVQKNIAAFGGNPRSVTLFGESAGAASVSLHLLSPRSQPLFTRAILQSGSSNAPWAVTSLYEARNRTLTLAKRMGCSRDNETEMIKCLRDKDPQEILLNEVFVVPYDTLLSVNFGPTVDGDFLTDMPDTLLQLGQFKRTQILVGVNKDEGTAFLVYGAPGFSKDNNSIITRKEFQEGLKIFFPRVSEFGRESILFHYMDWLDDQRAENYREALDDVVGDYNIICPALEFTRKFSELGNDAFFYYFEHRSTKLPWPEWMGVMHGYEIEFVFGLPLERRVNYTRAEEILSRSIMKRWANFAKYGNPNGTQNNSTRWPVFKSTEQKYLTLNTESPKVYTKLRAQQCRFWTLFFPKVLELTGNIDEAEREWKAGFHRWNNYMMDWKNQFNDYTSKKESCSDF

Cholinesterase [3] = biological target: T1, Cholinesterase; test: Inhibition of equine BuChE measured for 1 min by Ellman's method
[4] = biological target: Amyloid-beta precursor protein (Homo sapiens) (UniProt P05067); test: Inhibition of amyloid beta (1 to 40_1 to 42) (unknown origin) aggregation at 100 uM by thioflavin-T fluorescence method relative to rifampicin
[5] = biological target: Amyloid-beta precursor protein (Homo sapiens) (UniProt P05067); test: Inhibition of amyloid beta (1 to 40) (unknown origin) aggregation at 100 uM by thioflavin-T fluorescence method relative to rifampicin
Cholinesterase [6] = biological target: T1, Cholinesterase; test: Mixed type inhibition of equine BuChE by Lineweaver-Burk plot analysis
Acetylcholinesterase = Acetylcholinesterase (Homo sapiens, UniProt P22303); test: Inhibition of human recombinant AChE measured for 1 min by Ellman's method
Chain of Acetylcholinesterase (P22303 whole entry): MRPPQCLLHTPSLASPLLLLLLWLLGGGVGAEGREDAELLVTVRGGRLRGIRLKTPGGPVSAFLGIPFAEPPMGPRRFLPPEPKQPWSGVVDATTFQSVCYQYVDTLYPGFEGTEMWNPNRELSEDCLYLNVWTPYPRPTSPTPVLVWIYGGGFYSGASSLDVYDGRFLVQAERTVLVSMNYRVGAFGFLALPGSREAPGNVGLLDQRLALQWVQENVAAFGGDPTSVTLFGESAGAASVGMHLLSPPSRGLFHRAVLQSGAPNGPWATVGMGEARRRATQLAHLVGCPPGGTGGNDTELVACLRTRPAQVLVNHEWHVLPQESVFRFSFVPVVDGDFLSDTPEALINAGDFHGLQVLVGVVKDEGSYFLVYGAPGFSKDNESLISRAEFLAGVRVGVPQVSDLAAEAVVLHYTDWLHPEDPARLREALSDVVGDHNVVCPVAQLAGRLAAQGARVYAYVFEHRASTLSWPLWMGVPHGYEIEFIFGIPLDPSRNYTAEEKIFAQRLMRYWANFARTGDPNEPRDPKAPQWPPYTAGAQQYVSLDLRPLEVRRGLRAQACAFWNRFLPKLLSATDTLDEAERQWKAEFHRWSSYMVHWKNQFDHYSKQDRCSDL

CCOc1ccc(/C=N/NC(=O)CN2CCC(Cc3ccccc3)CC2)cc1
inhibition [1]: 69%
pKi (Cholinesterase [2]): 4.50
pIC50 (Cholinesterase [3]): 4.17
inhibition [4]: 69%
inhibition [5]: 69%

COc1ccc(/C=N/NC(=O)CN2CCC(Cc3ccccc3)CC2)cc1
inhibition [1]: 69%
pIC50 (Cholinesterase [3]): 4.31
inhibition [4]: 69%
pKi (Cholinesterase [6]): 4.52
inhibition [5]: 69%

COc1ccc(/C=N/NC(=O)CN2CCC(Cc3ccccc3)CC2)cc1OC
inhibition [1]: 69%
pIC50 (Cholinesterase [3]): 4.26
inhibition [4]: 69%
pIC50 (Acetylcholinesterase): 4.20
inhibition [5]: 69%

CCOc1ccc(/C=N/NC(=O)CN2CCN(Cc3ccccc3)CC2)cc1
inhibition [1]: 69%
pIC50 (Cholinesterase [3]): 4.01
inhibition [4]: 69%
pIC50 (Acetylcholinesterase): 4.09
inhibition [5]: 69%

COc1ccc(/C=N/NC(=O)CN2CCN(Cc3ccccc3)CC2)cc1OC
inhibition [1]: 69%
pIC50 (Cholinesterase [3]): 4.14
inhibition [4]: 69%
pIC50 (Acetylcholinesterase): 4.09
inhibition [5]: 69%

COc1ccc(/C=N/NC(=O)CN2CCN(Cc3ccccc3)CC2)cc1
inhibition [1]: 69%
pIC50 (Cholinesterase [3]): 4.05
inhibition [4]: 69%
pIC50 (Acetylcholinesterase): 4.05
inhibition [5]: 69%
